Experimental findings from ChEMBL document CHEMBL5724914, “Linking interpersonal differences in gut microbiota composition and drug biotransformation activity” (2024) are described below.

For data set [1] the following is noted: human gut metagenome, 24 h, 2 µM.
Data set [2] is described as follows: The drug is tested on Z-002 corresponding to rabbit gut metagenome with ENA study accession number: PRJEB37062 and ENA sample accession number: ERS12561802 for biotransformation under anaerobic condition. The drug concentrations were measured over 9 timepoints collected between 0 and 24 hours of incubation by liquid-chromatography-coupled mass spectrometry (LC–MS). To be noted: 2 µM.

The conditions of data set [3]: human gut metagenome, 24 h, 2 µM. This is another data set of the same source.
Data set [4] can be described thus: The drug is tested on WLS-038 corresponding to human gut metagenome with ENA study accession number: PRJEB37062 and ENA sample accession number: ERS12561745 for biotransformation under anaerobic condition. The drug concentrations were measured over 9 timepoints collected between 0 and 24 hours of incubation by liquid-chromatography-coupled mass spectrometry (LC–MS). The conditions noted are these: 2 µM.

For data set [5] the following is noted: human gut metagenome, 24 h, 2 µM. This is another data set of the same source.
Data set [6] is described as follows: The drug is tested on Z-009 corresponding to pig gut metagenome with ENA study accession number: PRJEB37062 and ENA sample accession number: ERS12561809 for biotransformation under anaerobic condition. The drug concentrations were measured over 9 timepoints collected between 0 and 24 hours of incubation by liquid-chromatography-coupled mass spectrometry (LC–MS). The conditions noted are these: 2 µM.

Data set [7] in a line: The drug is tested on WLS-073 corresponding to human gut metagenome with ENA study accession number: PRJEB37062 and ENA sample accession number: ERS12561749 for biotransformation under anaerobic condition. The drug concentrations were measured over 9 timepoints collected between 0 and 24 hours of incubation by liquid-chromatography-coupled mass spectrometry (LC–MS). The conditions noted are these: 2 µM.

Data set [8] is described as follows: The drug is tested on Z-003 corresponding to pig gut metagenome with ENA study accession number: PRJEB37062 and ENA sample accession number: ERS12561803 for biotransformation under anaerobic condition. The drug concentrations were measured over 9 timepoints collected between 0 and 24 hours of incubation by liquid-chromatography-coupled mass spectrometry (LC–MS). The conditions noted are these: 2 µM.

Data set [9] in a line: The drug is tested on WLS-370 corresponding to human gut metagenome with ENA study accession number: PRJEB37062 and ENA sample accession number: ERS12561793 for biotransformation under anaerobic condition. The drug concentrations were measured over 9 timepoints collected between 0 and 24 hours of incubation by liquid-chromatography-coupled mass spectrometry (LC–MS). The conditions noted are these: 2 µM.
Further: call rule not given here.

Consider `Br.CN(C)CCCC1(c2ccc(F)cc2)OCc2cc(C#N)ccc21` (stereo unspecified) [CITALOPRAM HYDROBROMIDE], for which the “Bacterial Biotransformation” value was “Compound metabolized” in [1]; “Compound metabolized” in data set [2]; “Compound NOT metabolized” in data set [3]; “Compound NOT metabolized” in data set [4]; “Compound NOT metabolized” in data set [5]; “Compound metabolized” in data set [6]. In addition, the “Bacterial Biotransformation” value is “Compound NOT metabolized” in [7], “Compound NOT metabolized” in data set [8] and “Compound metabolized” in [9].

For `CN(C)CCC=C1c2ccccc2C=Cc2ccccc21` [CYCLOBENZAPRINE], the “Bacterial Biotransformation” value is recorded as “Compound metabolized” in [1]; “Compound metabolized” in data set [2]; “Compound metabolized” in data set [3]; “Compound NOT metabolized” in data set [4]; “Compound metabolized” in [5]; “Compound metabolized” in data set [6]. The “Bacterial Biotransformation” value in data set [7], in data set [8] and in data set [9] was “Compound metabolized” each time.

Consider `O=C(Nc1ccccc1)OCC(CN1CCCCC1)OC(=O)Nc1ccccc1` (stereo unspecified) [DIPERODON], for which the “Bacterial Biotransformation” value in data set [1] is recorded as “Compound metabolized”; in data set [2], “Compound NOT metabolized”; in [3] it was “Compound metabolized”; in [4] it was “Compound NOT metabolized”; in data set [5], “Compound NOT metabolized”; in data set [6] it was “Compound metabolized”. Further, the “Bacterial Biotransformation” value in data set [7] is “Compound NOT metabolized”; in [8], “Compound metabolized”; in [9] it was “Compound NOT metabolized”.

Turning to `CC(C)N(CCC(C(N)=O)(c1ccccc1)c1ccccn1)C(C)C.O=P(O)(O)O` (stereo unspecified) [DISOPYRAMIDE PHOSPHATE], the “Bacterial Biotransformation” value in data set [1], in [2], in data set [3], in data set [4], in data set [5] and in [6] was “Compound NOT metabolized” each time. In addition, the “Bacterial Biotransformation” value in data set [7], in data set [8] and in data set [9] was “Compound NOT metabolized” throughout.

As to `C[C@@H](CO)NC(=O)[C@@H]1C=C2c3cccc4[nH]cc(c34)C[C@H]2N(C)C1.O=C(O)/C=C\C(=O)O` [ERGONOVINE MALEATE], the “Bacterial Biotransformation” value was “Compound NOT metabolized” in [1]; “Compound NOT metabolized” in data set [2]; “Compound metabolized” in data set [3]; “Compound metabolized” in [4]; “Compound metabolized” in data set [5]; “Compound NOT metabolized” in [6]. Besides, the entries for the “Bacterial Biotransformation” value in data set [7], in data set [8] and in data set [9] were “Compound metabolized”, “Compound NOT metabolized” and “Compound metabolized”, respectively.

Take `CCN(CC)C(C)CN1c2ccccc2Sc2ccccc21` (stereo unspecified) [ETHOPROPAZINE]: the “Bacterial Biotransformation” value in data set [1] is “Compound metabolized”; in [2], “Compound metabolized”; in data set [3] it was “Compound metabolized”; in data set [4], “Compound NOT metabolized”; in data set [5], “Compound metabolized”; in [6], “Compound metabolized”. The “Bacterial Biotransformation” value in data set [7], in data set [8] and in data set [9] was “Compound metabolized” throughout.

Turning to `Cc1nc(-c2ccc(OCC(C)C)c(C#N)c2)sc1C(=O)O` [FEBUXOSTAT], the “Bacterial Biotransformation” value in data set [1] is given as “Compound metabolized”; in data set [2] it was “Compound metabolized”; in [3], “Compound metabolized”; in [4], “Compound metabolized”; in data set [5], “Compound metabolized”; in data set [6], “Compound NOT metabolized”. Besides, the “Bacterial Biotransformation” value is “Compound NOT metabolized” in [7], “Compound metabolized” in data set [8] and “Compound metabolized” in data set [9].

Consider `CC(C)(C(=O)O)c1ccc(C(O)CCCN2CCC(C(O)(c3ccccc3)c3ccccc3)CC2)cc1` (stereo unspecified) [FEXOFENADINE], for which the “Bacterial Biotransformation” value in data set [1] is “Compound NOT metabolized”; in [2], “Compound metabolized”; in data set [3], “Compound NOT metabolized”; in data set [4] it was “Compound NOT metabolized”; in data set [5] it was “Compound NOT metabolized”; in data set [6], “Compound NOT metabolized”. Moreover, the “Bacterial Biotransformation” value in data set [7], in [8] and in data set [9] was “Compound NOT metabolized” each time.

In the case of `OCCN1CCN(CCCN2c3ccccc3Sc3ccc(C(F)(F)F)cc32)CC1` [FLUPHENAZINE], the “Bacterial Biotransformation” value in data set [1], in data set [2], in data set [3], in data set [4], in [5] and in data set [6] was “Compound metabolized” throughout. Also, the “Bacterial Biotransformation” value in [7], in data set [8] and in data set [9] was “Compound metabolized” each time.

As for `COc1ccc2c3c1O[C@H]1C[C@@H](O)C=C[C@@]31CCN(C)C2` [GALANTAMINE], the “Bacterial Biotransformation” value in data set [1] was “Compound metabolized”; in data set [2] it was “Compound metabolized”; in [3], “Compound NOT metabolized”; in data set [4] it was “Compound NOT metabolized”; in data set [5] it was “Compound NOT metabolized”; in [6] it was “Compound NOT metabolized”. In addition, the “Bacterial Biotransformation” value in data set [7], in data set [8] and in [9] was “Compound NOT metabolized” each time.

Consider `Cc1ccc(S(=O)(=O)NC(=O)NN2CC3CCCC3C2)cc1` (stereo unspecified) [GLICLAZIDE], for which the “Bacterial Biotransformation” value in data set [1] is on record as “Compound metabolized”; in data set [2] it was “Compound metabolized”; in data set [3], “Compound metabolized”; in [4] it was “Compound metabolized”; in data set [5], “Compound NOT metabolized”; in data set [6] it was “Compound metabolized”. Besides, the “Bacterial Biotransformation” value in data set [7], in data set [8] and in data set [9] was “Compound metabolized” each time.

Turning to `COC1=CC(=O)C[C@@H](C)[C@]12Oc1c(Cl)c(OC)cc(OC)c1C2=O` [GRISEOFULVIN], the “Bacterial Biotransformation” value in data set [1], in [2], in data set [3], in [4], in [5] and in [6] was “Compound metabolized” throughout. Moreover, the “Bacterial Biotransformation” value in [7], in [8] and in data set [9] was “Compound metabolized” throughout.

Take `N#Cc1ccc(C(c2ccc(C#N)cc2)n2cncn2)cc1` [LETROZOLE]: the “Bacterial Biotransformation” value in data set [1] is given as “Compound NOT metabolized”; in [2] it was “Compound metabolized”; in data set [3], “Compound NOT metabolized”; in data set [4] it was “Compound NOT metabolized”; in data set [5] it was “Compound NOT metabolized”; in data set [6], “Compound NOT metabolized”. Also, the “Bacterial Biotransformation” value in [7], in data set [8] and in [9] was “Compound NOT metabolized” each time.

For `CC(Oc1c(Cl)cccc1Cl)C1=NCCN1` (stereo unspecified) [LOFEXIDINE], the “Bacterial Biotransformation” value in [1] was “Compound NOT metabolized”; in [2], “Compound metabolized”; in data set [3], “Compound NOT metabolized”; in data set [4] it was “Compound NOT metabolized”; in data set [5], “Compound NOT metabolized”; in data set [6], “Compound NOT metabolized”. The “Bacterial Biotransformation” value in [7], in [8] and in data set [9] was “Compound NOT metabolized” each time.
